Consider 3 molecules from patent publication US8080529B2, “Macrolides with anti-inflammatory activity” (Glaxo Group Limited, priority 2005, dated 2011).

Read-outs that look alike come from different tables or passages of the source.

A word on the inhibition: it is the relative decrease from the control value, in per cent.

Data set [1] concerns TNF-α. Briefly: Inhibition of TNF-α production by stimulated human peripheral blood leukocytes in vitro. In kind it is cell-based. The following applies: Homo sapiens, Leukocyte, read-out: Percentage of inhibition of TNF-α production. Summed up:
(§1)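 Compound at 10 or 50 μM, given 2 h ahead of an overnight LPS, PMA or zymosan challenge, was tested on human PBL in RPMI with 10% FCS at 37 °C. Sandwich ELISA quantified supernatant cytokine.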

A further data set concerns IL-1α. Briefly: Inhibition of IL-1 production by stimulated human peripheral blood leukocytes in vitro. Type of data set: cell-based. The settings on record: Homo sapiens, Leukocyte, read-out: Percentage of inhibition of IL-1α production.
The test system of data set [2] is IL-6. In words: Inhibition of IL-6 production by stimulated human peripheral blood leukocytes in vitro. In kind it is cell-based. The following applies: Homo sapiens, Leukocyte, read-out: Percentage of inhibition of IL-6 production. The gist of the method: as §1
For another data set, the system named is IL-8. In words: Inhibition of IL-8 production by stimulated human peripheral blood leukocytes in vitro. In kind it is cell-based. The following applies: Homo sapiens, Leukocyte, read-out: Percentage of inhibition of IL-8 production. Summed up: as §1
Data set [3] has as its system granulocytes. In kind it is in vitro ADME. The settings on record: human, 180 min, 10 μM. The protocol:
(§2) Granulocytes were obtained from heparinized whole blood using density gradiant centrifugation. Erythrocytes were sedimented on 3% dextran T-500 (Amersham Pharmacia Biotech AB, Uppsala, Sweden). Leukocytes were centrifuged on Ficoll (Amersham Pharmacia Biotech AB, Uppsala, Sweden) for 35 min at 600 g at 20° C. The pellet of granulocytes was cleared from remaining erythrocytes by a brief hypotonic lysis.
7.5×10^6 granulocytes, isolated as described above, were suspended in 3 mL of RPMI 1640 (Institute of Immunology, Croatia) containing 10 μM of tested macrolide. Samples were incubated at 37° C. for 180 min. Following incubation, the samples were centrifuged through the layer of Poly(dimethylsiloxane-co-diphenylsiloxane), dihydroxy terminated-silicone oil (Aldrich Chemical Company, Milwaukee, USA). The pellet was resuspended in 0.5% Triton X-100 (Sigma, St. Louis, USA) in deionized water (MilliQ, Millipore Corporation, Bedford, USA). The suspension was sonicated, proteins were precipitated with acetonitrile, and the concentration of macrolide in the supernatants was determined by liquid chromatography-mass spectrometry (LC-MS).
Intracellular concentrations of the test compounds were calculated from the mean cell number recovered after centrifuging through silicone oil. According to the literature, about 1 million neutrophils is considered to have a volume of 0.24 μL (Vazifeh et al., Antimicrob Agents Chemo. 1997; 41: 2099-2107). To estimate the extent of macrolide accumulation, the intracellular to extracellular concentration ratio (I/E) was calculated, where E (due to a large volume of incubation medium) was taken as constant (10 μM). Results are expressed relative to azithromycin according to the following equation: % of azithromycin uptake =(I/E of a substance/I/E of azithromycin)×100. I/E values obtained for azithromycin were 164±10.

A further data set relates to Hep G2. In words: Cytotoxicity assay (MTT), Hep G2 cell line. In kind it is cell-based. The settings on record: 24 h. Summed up: (§3)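 Viability was read as MTT-formazan absorbance at 490 nm after 0.5-2 h with reagent. This followed 24 h compound exposure (50 μM, 12.5 μM) at 37° C in RPM medium. Result expressed as OD490 treated over untreated cells ×100.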
The subject of the next data set is A549. In words: Cytotoxicity assay (MTT), A549 cell line. In kind it is cell-based. The settings on record: 24 h. Summed up: as §3
The subject of data set [4] is TNF-α. Briefly: Lipopolysaccharide induced TNF-α production in Balb/cJ mice. The settings on record: Mus musculus, ip, 1.5 h; 10 mg/kg intraperitoneally, 30 min before LPS; 90 min after LPS; read-out: % inhibition of TNF-α production (plasma). Type of data set: in vivo. The protocol:
Male Balb/cJ mice (Iffa Credo, France) weighing 25-33 g were randomly grouped (n=7 in test group, 7 in positive control group, 4 in negative control group). Test compounds, as well as vehicle [0.125% carboxymethyl-cellulose (Sigma, USA)], were administered to the mice intraperitoneally. Test compounds were administered at a dose of 10 mg/kg of body weight, in a volume of 10 mL/kg of body weight. Thirty minutes later, a sterile solution of lipopolysaccharide (LPS) (Sigma, USA) in saline was intraperitoneally administered at a concentration and volume of 25 μg/0.2 mL/mouse to each animal, except those in negative control. Ninety minutes following administration, all animals were sacrificed by puncturing a. carotis communis. The plasma concentration of TNF-α was determined by sandwich ELISA, using capture and detection antibodies (R&D, USA) according to manufacturer's recommendations. Results are presented in the following table as percent of inhibition of TNF-α production in comparison to the positive control (stimulated, but untreated animals).

For a further data set, the system named is neutrophils. In words: Lung neutrophilia induced by bacterial lipopolysaccharide in male BALB/cJ mice: cells in BALF and lung tissue. Type of data set: in vivo. The following applies: 2.5 mg i.p.; 24 hours after LPS. The method, then: (§4) Male BALB/cJ mice (Iffa Credo, France), with average weight 30 g were randomly grouped (n=7 in testing group, 8 in positive control, 7 in negative control). Mice were administered intraperitoneally (i.p.) a single dose of 5 or 2.5 mg of test compound. Two hours after administration, 2 μg of bacterial lipopolysaccharide (LPS), dissolved in PBS in a volume of 60 μL, was intranasally administered to all experimental groups except the negative control group, which received the same volume (60 μL) of vehicle PBS. Animals were sacrificed approximately 24 hours after application of LPS in order to obtain bronchoalveolar lavage fluid (BALF), which was used to determine concentrations of IL-6 and TNF-α, absolute number of cells, and the percentage of neutrophils in BALF. Results are expressed as percentage of decrease of total cell number, relative number of neutrophils, and TNF-α, and IL-6 concentration in BALF of treated animals compared to positive control (LPS stimulated, but untreated animals).
(§5) Results are expressed as percentage of decrease of total cell number, relative number of neutrophils, and TNF-alpha and IL-6 concentration in BALF of treated animals compared to positive control (LPS stimulated, but untreated animals).
Besides accumulation of inflammatory cells in BALF, the extent and anatomic site of pulmonary inflammation induced by LPS was assessed 24 hours after PBS or LPS exposure. Accumulation of granulocytes and mononuclear cells in peribronchial (PB) and perivascular (PV) lung tissue areas and in alveolar spaces was monitored following sacrifice of the animals.

The test system of data set [5] is TNF-α. In words: Lung neutrophilia induced by bacterial lipopolysaccharide in male BALB/cJ mice: TNF-α in BALF. The settings on record: 2.5 mg i.p.; 24 hours after LPS. In kind it is in vivo. The method, then: as §4, §5
Data set [6] has as its system IL-6. In words: Lung neutrophilia induced by bacterial lipopolysaccharide in male BALB/cJ mice: IL-6 in BALF. The following applies: 2.5 mg i.p.; 24 hours after LPS. In kind it is in vivo. The protocol: as §4, §5
The subject of data set [7] is granulocytes. Briefly: Inhibition of degranulation of granulocytes (free neutrophil elastase activity). The settings on record: Homo sapiens, Neutrophil, compound 50 μM, read-out: Percentage of inhibition of degranulation of granulocytes. In kind it is cell-based, human. The protocol: as §2
1×10^6 granulocytes, isolated as described above, were resuspended in RPMI-1640 medium (Institute of Immunology, Croatia), and were incubated with 10 or 50 μM of test compound together with cytochalasine B (5 μg/mL) for 2 h at 37° C. Degranulation then was induced by the addition of 0.1 μM fMLP (Sigma, USA) or 0.5 μM A23187 (Calbiochem, USA). The activity of free neutrophil elastase was determined with a chromogenic substrate specific for human neutrophil elastase, such as N-(methoxysuccinyl)-L-alanyl-L-alanyl-L-prolyl-L-valine 4-nitroanilide (Sigma Chemical Company, St Louis, Mo., USA). Elastase activity, as a marker of primary granules, was assessed in supernatant using a spectrophotometer at an absorbance of 405 nm.
Results are expressed as the percent of inhibition of degranulation in unstimulated cells, and in stimulated cells treated with fMLP or A23187.

In the case of `CC[C@H]1OC(=O)[C@H](C)[C@@H](O[C@H]2C[C@@](C)(OC)[C@@H](OCCCN)[C@H](C)O2)[C@H](C)[C@@H](O[C@@H]2O[C@H](C)C[C@H](N(C)C)[C@H]2O)[C@](C)(O)C[C@@H](C)CN(C)[C@H](C)[C@H]2OC(=O)O[C@@]21C` [Example 51C, 11,12-Carbonate-11,12-dideoxy-4″-O-(3-aminopropyl)-azithromycin], the inhibition at 10 µM was determined as 5% in the data set on TNF-α [1] (LPS-stimulated PBL); 18% in the data set with TNF-α [1] (PMA-stimulated PBL); 38% with TNF-α [1] (zymosan-stimulated PBL); 2% with IL-1α (LPS-stimulated PBL); 0% in the data set on IL-1α (PMA-stimulated PBL); 62% with IL-1α (zymosan-stimulated PBL). The inhibition at 10 µM stood at 4% with IL-6 [2] (LPS-stimulated PBL); 27% in the data set on IL-6 [2] (PMA-stimulated PBL); 42% in the data set on IL-6 [2] (zymosan-stimulated PBL); 0% in the data set on IL-8 (LPS-stimulated PBL); 12% in the data set with IL-8 (PMA-stimulated PBL); 26% in the data set on IL-8 (zymosan-stimulated PBL). Moreover, the inhibition at 50 µM with TNF-α [1] (LPS-stimulated PBL) is 0%; in the data set with TNF-α [1] (PMA-stimulated PBL) it was 4%; in the data set with TNF-α [1] (zymosan-stimulated PBL) it was 0%; in the data set with IL-1α (LPS-stimulated PBL), 0%; in the data set with IL-1α (PMA-stimulated PBL), 0%; with IL-1α (zymosan-stimulated PBL) it was 0%. In addition, the inhibition at 50 µM in the data set on IL-6 [2] (LPS-stimulated PBL) was 0%; in the data set with IL-6 [2] (PMA-stimulated PBL), 6%; in the data set with IL-6 [2] (zymosan-stimulated PBL), 0%; in the data set on IL-8 (LPS-stimulated PBL), 0%; in the data set with IL-8 (PMA-stimulated PBL), 0%; with IL-8 (zymosan-stimulated PBL), 0%. In addition, the “Uptake (% azithromycin)” value in the data set with granulocytes [3] amounted to 122 % azithromycin. Besides, the “Percentage of inhibition of cell growth” value with Hep G2 (12.5 μM) is recorded as 15%; in the data set on Hep G2 (50 μM), 7%; in the data set with A549 (12.5 μM), 0%; with A549 (50 μM) it was 0%.

In the case of `CC[C@H]1OC(=O)[C@H](C)[C@@H](O[C@H]2C[C@@](C)(OC)C(OC(=O)CCN(CC)CC)[C@H](C)O2)[C@H](C)[C@@H](O[C@@H]2O[C@H](C)C[C@H](N(C)C(C)=O)[C@H]2O)[C@](C)(OC)C[C@@H](C)C(=O)N[C@H](C)[C@@H](O)[C@]1(C)O` (stereo partly drawn) [Example 62, 3′-N-methyl-3′-N-acetyl-4″-O-(3-diethylaminopropionyl)-6-O-methyl-9a-aza-9a-homoerythromycin A], the inhibition in vivo at 10 mg/kg in the data set with TNF-α [4] turned out to be 59%. Also, in the data set with neutrophils, the “% decrease of neutrophils in BALF” value came to 13% and the “% decrease of total cell no. in BALF” value was 47%. Further, the “Percentage of decrease of TNF-α concentration in BALF” value in the data set with TNF-α [5] is reported as 62%. Also, in the data set with IL-6 [6], the “Percentage of decrease of IL-6 concentration in BALF” value was found to be 22%.

As for `CC[C@H]1OC(=O)[C@H](C)[C@@H](O[C@H]2C[C@@](C)(OC)[C@@H](O)[C@H](C)O2)[C@H](C)[C@@H](O[C@@H]2O[C@H](C)C[C@H](N(C)C)[C@H]2O)[C@](C)(O)C[C@@H](C)C(=O)[C@H](C)[C@@H](O)[C@]1(C)O` [erythromycin, reference compound], the inhibition at 50 µM with granulocytes [7] (A23187 0.5 μM) came to 0%; in the data set with granulocytes [7] (fMLP 0.1 μM) it was 23%.
